Active and inactive are the calls of the source. The calls are words filed in the database; no cut-off is given here.
Experiments:
[1] = species: Rattus norvegicus; test: Compound was evaluated for the anticonvulsant activity in amygdala kindled rats; Inactive; format: functional, organism-based
[2] = species: Rattus norvegicus; test: Compound was evaluated for the anticonvulsant activity in amygdala kindled rats; Active; format: functional, organism-based
[3] = target: 4-aminobutyrate aminotransferase, mitochondrial (Homo sapiens) (UniProt P80404); test: Compound was tested for the inhibition of Gamma-amino-N-butyrate transaminase; Active
[4] = target: T1, Succinate-semialdehyde dehydrogenase, mitochondrial (Homo sapiens) (UniProt P51649); test: Compound was tested for the inhibition of succinic semialdehyde dehydrogenase; Active
T1 sequence (whole entry): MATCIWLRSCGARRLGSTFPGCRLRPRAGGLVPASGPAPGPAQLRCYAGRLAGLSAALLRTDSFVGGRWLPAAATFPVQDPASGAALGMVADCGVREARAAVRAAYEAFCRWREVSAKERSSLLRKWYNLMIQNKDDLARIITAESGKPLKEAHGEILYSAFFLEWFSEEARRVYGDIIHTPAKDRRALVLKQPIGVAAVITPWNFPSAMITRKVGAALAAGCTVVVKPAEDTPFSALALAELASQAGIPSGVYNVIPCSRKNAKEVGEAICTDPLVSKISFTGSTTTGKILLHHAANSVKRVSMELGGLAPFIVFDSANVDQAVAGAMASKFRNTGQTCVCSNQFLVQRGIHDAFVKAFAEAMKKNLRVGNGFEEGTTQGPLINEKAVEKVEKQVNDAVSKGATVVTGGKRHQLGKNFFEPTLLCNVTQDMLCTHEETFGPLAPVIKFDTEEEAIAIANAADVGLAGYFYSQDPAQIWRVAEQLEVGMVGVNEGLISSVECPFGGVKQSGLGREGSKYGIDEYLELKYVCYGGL

Sequence of 4-aminobutyrate aminotransferase, mitochondrial (Homo sapiens) (P80404 whole entry): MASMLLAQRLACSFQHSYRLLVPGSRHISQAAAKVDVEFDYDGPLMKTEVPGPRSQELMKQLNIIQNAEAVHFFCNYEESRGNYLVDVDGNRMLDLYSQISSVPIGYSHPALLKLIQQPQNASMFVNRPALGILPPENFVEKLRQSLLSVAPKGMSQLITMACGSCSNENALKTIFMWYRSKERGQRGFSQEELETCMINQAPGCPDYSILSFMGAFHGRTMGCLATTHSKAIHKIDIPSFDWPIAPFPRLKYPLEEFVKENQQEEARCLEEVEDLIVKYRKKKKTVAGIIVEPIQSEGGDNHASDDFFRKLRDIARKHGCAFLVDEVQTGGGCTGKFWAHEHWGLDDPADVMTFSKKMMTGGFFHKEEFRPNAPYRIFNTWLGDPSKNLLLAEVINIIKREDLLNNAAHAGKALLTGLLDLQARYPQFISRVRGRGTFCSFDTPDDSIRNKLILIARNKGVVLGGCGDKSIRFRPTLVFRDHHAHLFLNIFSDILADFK

Activity [3] | Activity [4] | SMILES | Activity [1] | Activity [2]
– | – | CCCC(CCC)P(=O)(O)O | inactive | –
– | – | CCCC(CCC)P(C)(=O)O | inactive | –
Active | Active | CCCC(CCC)C(=O)O | – | Active
– | – | CCCC(CCC)[PH](=O)O | inactive | –

— ChEMBL document CHEMBL1132812, “Novel phosphinic and phosphonic acid analogues of the anticonvulsant valproic acid” (Bioorg Med Chem Lett, 2000)
